SMILES: CC(=O)Nc1ccc(O)cc1
- solubility (mole fraction) (in transcutol, 298.15 K): 0.111
- solubility (mole fraction) (in transcutol, 303.15 K): 0.118
- solubility (mole fraction) (in transcutol, 308.15 K): 0.126
- solubility (mole fraction) (in transcutol, 313.15 K): 0.134
- solubility (mole fraction) (in transcutol, 318.15 K): 0.144
- solubility (mole fraction) (in transcutol, 323.15 K): 0.153
- solubility (mole fraction) (in transcutol, 328.15 K): 0.166
- solubility (mole fraction) (in transcutol, 333.15 K): 0.178
- solubility (mole fraction) (in water, 298.15 K): 0.0016
- solubility (mole fraction) (in water, 303.15 K): 0.0019
- solubility (mole fraction) (in water, 308.15 K): 0.0023
- solubility (mole fraction) (in water, 313.15 K): 0.0027
- solubility (mole fraction) (in water, 318.15 K): 0.0033
- solubility (mole fraction) (in water, 323.15 K): 0.004
- solubility (mole fraction) (in water, 328.15 K): 0.0047
- solubility (mole fraction) (in water, 333.15 K): 0.0055

From BigSolDB 2.1
